Data reported in patent US20250326732A1 (Pretzel Therapeutics, Inc., priority 2021, published 2025).

Target: POLRMT (Homo sapiens (Human), UniProt O00411)
Assay: homogeneous TR-FRET assay of mitochondrial transcription (inhibition of POLRMT)
Assay type: biochemical
Details: 7.5 nM POLRMT, 15 nM TFB2M, 30 nM TFAM, 0.5 nM DNA template, 500 μM NTPs, 37° C. for 60 minutes
Protocol: The ability of some compounds of the present invention to inhibit POLRMT were determined in a homogeneous TR-FRET Assay using high-throughput screening in a 384-well plate format. […] Detection of the product is facilitated by hybridization of two DNA-oligonucleotide probes to specific and adjacent sequences within the RNA product sequence. Upon annealing of the probes, two fluorophores are coupled directly to an acceptor nucleotide probe (ATTO647, 5′), or introduced via a coupled streptavidin with a biotinylated donor nucleotide probe (Europium cryptate) that is brought into sufficient proximity to serve as a fluorescence-donor-acceptor pair. Thus, a FRET signal at 665 nm is generated upon excitation at 340 nm.
The DNA template is restriction linearized proximal to the promotor 3′-end (pUC-LSP). […] No nucleotide triphosphate mix is added to negative control samples. Microplates with compounds to be tested in the assay are prepared from 10 mM compound stocks in 100% DMSO, equal amounts of DMSO without any compound are added to positive control and negative control samples.
During the incubation, a mix of the detection reagents is prepared in a buffer such that the enzymatic reaction is terminated due to chelating of Mg-ions and increased ionic strength, containing 50 mM Tris-HCl (pH 7.5), 700 mM NaCl, 20 mM EDTA, and 0.01% (w/v) Tween-20. Europium-streptavidin is pre-incubated with a 200-fold molar excess of a random sequence oligonucleotide to block unspecific binding of oligo, for two hours at ambient temperature in the dark. Afterwards, the blocked Europium-streptavidin is kept on ice until use.
At the end of the enzymatic reaction time, 5 μL detection oligo mix in the detection buffer is added, and assay plates are mixed and kept at ambient temperature for one hour, protected from light. The concentration of the Acceptor nucleotide oligo (e.g., ATTO647N-5′-[…]-3′) and Donor nucleotide oligo (e.g., bio-5′-[…](-bio)[…]-bio-3′) in each assay well is 1 nM, and 3 nM, respectively.
After incubation with oligo mix, 5 μL of pre-blocked Europium-streptavidin reagent is dispensed to each assay well, assay plates are again mixed and kept at ambient temperature for one hour, protected from light.
The generated signal is measured with BMG Pherastar microtiter plate reader with a TRF light unit, using excitation at 340 nm, an integration time of 200 μs, and a delay time of 100 μs, before detection at 620 nm and 665 nm. The ratio of donor- and acceptor-fluorescence is used as a measure of the generated transcript product (i.e. enzymatic activity).

Chain of POLRMT (O00411 42-1230): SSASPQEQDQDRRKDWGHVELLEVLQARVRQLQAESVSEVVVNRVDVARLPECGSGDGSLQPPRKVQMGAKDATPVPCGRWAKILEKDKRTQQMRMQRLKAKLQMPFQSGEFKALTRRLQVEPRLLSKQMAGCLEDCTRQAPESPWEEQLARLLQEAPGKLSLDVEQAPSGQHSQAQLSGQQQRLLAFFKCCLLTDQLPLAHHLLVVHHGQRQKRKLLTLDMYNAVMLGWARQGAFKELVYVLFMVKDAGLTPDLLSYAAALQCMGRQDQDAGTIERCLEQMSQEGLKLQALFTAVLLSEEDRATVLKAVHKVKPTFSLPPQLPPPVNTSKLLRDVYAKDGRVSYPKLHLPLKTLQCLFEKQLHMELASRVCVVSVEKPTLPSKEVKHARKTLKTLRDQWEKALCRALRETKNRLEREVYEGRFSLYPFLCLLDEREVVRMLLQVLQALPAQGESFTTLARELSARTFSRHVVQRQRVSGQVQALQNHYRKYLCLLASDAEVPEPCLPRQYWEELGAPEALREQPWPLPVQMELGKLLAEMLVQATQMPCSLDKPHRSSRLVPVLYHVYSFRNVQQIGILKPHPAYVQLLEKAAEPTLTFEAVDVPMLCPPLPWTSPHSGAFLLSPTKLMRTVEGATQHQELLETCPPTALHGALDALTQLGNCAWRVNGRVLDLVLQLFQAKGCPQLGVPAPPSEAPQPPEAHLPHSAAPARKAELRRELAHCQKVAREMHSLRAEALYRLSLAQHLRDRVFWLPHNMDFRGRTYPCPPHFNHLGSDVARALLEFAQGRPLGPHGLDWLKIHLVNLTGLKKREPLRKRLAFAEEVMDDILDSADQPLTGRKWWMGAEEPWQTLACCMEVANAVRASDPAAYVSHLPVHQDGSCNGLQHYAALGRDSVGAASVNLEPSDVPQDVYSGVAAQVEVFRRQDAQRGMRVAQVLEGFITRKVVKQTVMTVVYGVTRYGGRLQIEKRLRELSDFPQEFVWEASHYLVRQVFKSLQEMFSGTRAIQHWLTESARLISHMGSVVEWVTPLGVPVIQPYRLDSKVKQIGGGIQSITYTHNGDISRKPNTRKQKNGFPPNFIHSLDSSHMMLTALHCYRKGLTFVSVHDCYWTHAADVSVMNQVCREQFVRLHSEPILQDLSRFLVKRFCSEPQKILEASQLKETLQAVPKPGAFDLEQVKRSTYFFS

Structure (SMILES) | IC50 [nM]
Cc1ccccc1-c1cc(=O)oc2cc(N(C)C)ccc12 [Example 01, 7-(dimethylamino)-4-(o-tolyl)-2H-chromen-2-one] | 400
Cc1ccccc1-c1cc(=O)oc2cc([C@@H]3C[C@H]3C(=O)N(C)C)ccc12 (relative stereo) [Example 241, chiral-(trans)-N,N-dimethyl-2-(2-oxo-4-(o-tolyl)-2H-chromen-7-yl)cyclopropane-1-carboxamide] | 5000
Cc1ccccc1-c1cc(=O)oc2cc(NCc3nccs3)ccc12 [Example 165, 7-((thiazol-2-ylmethyl)amino)-4-(o-tolyl)-2H-chromen-2-one] | 3000
Cc1ccccc1-c1cc(=O)oc2cc(NC(=O)C(C)C)ccc12 [Example 33, N-(2-oxo-4-(o-tolyl)-2H-chromen-7-yl) isobutyramide] | 300
CCOC(=O)/C(C)=C/c1ccc2c(-c3ccccc3C)cc(=O)oc2c1 [Example 50, ethyl (E)-2-methyl-3-(2-oxo-4-(o-tolyl)-2H-chromen-7-yl)acrylate] | 2000
C[C@H](C(=O)N1CCOCC1)N(C)c1ccc2c(-c3ccc(F)cc3Cl)cc(=O)oc2c1 [Example 55, (R)-4-(2-chloro-4-fluorophenyl)-7-(methyl(1-morpholino-1-oxopropan-2-yl)amino)-2H-chromen-2-one] | 70
CN(CCC(=O)O)c1ccc2c(-c3ccc(F)cc3Cl)cc(=O)oc2c1 [Example 130, 3-((4-(2-chloro-4-fluorophenyl)-2-oxo-2H-chromen-7-yl)(methyl)amino)propanoic acid] | 400
Cc1ccccc1-c1cc(=O)oc2cc(NC3(C(N)=O)CC3)ccc12 [Example 213, 1-((2-oxo-4-(o-tolyl)-2H-chromen-7-yl)amino)cyclopropane-1-carboxamide] | 21000
COC[C@@H](C(=O)N1CCC[C@H](C(=O)O)C1)N(C)c1ccc2c(-c3ccccc3C)cc(=O)oc2c1 (single isomer, unassigned) [Example 120] | 21000
Cc1ccccc1-c1cc(=O)oc2cc(N(C)C(C)C(N)=O)ccc12 (stereo not drawn) [Example 195, 2-(methyl(2-oxo-4-(o-tolyl)-2H-chromen-7-yl)amino)propanamide] | 50
Cc1ccccc1-c1cc(=O)oc2cc(NCC(C)C(=O)O)ccc12 (single isomer, unassigned) [Example 155-1, 2-methyl-3-((2-oxo-4-(o-tolyl)-2H-chromen-7-yl)amino)propanoic acid] | 500
CC(=O)N(C)[C@H]1CCCN(C(=O)c2ccc3c(-c4ccccc4C)cc(=O)oc3c2)C1 [Example 173, (S)—N-methyl-N-(1-(2-oxo-4-(o-tolyl)-2H-chromene-7-carbonyl)piperidin-3-yl)acetamide] | 73000
COCc1ccc2c(-c3ccccc3C)cc(=O)oc2c1 [Example 10, 7-(methoxymethyl)-4-(o-tolyl)-2H-chromen-2-one] | 400
Cc1ccccc1-c1cc(=O)oc2cc(C(C)CC(=O)N3CCC[C@H](C(=O)O)C3)ccc12 (single isomer, unassigned) [Example 82] | 5000
Cc1ccccc1-c1cc(=O)oc2cc([C@@H]3C[C@H]3C(=O)N(C)C)ccc12 (relative stereo) [Example 240, chiral-(trans)-N,N-dimethyl-2-(2-oxo-4-(o-tolyl)-2H-chromen-7-yl)cyclopropane-1-carboxamide] | 8000
COCc1ccc2c(-c3ccc(F)cc3Cl)cc(=O)oc2c1 [Example 16, 4-(2-chloro-4-fluorophenyl)-7-(methoxymethyl)-2H-chromen-2-one] | 1000
O=C(O)CCNc1ccc2c(-c3ccccc3Cl)cc(=O)oc2c1 [Example 131, 3-((4-(2-chlorophenyl)-2-oxo-2H-chromen-7-yl)amino)propanoic acid] | 8000

Structure (SMILES) | IC50 [nM]
C[C@H](Cc1ccc2c(-c3ccc(F)cc3Cl)cc(=O)oc2c1)C(=O)N1CCCCC1 [Example 19, (R)-4-(2-chloro-4-fluorophenyl)-7-(2-methyl-3-oxo-3-(piperidin-1-yl)propyl)-2H-chromen-2-one] | 24000
Cc1ccccc1-c1cc(=O)oc2cc(N(C)Cc3ccn(C)n3)ccc12 [Example 125, 7-(methyl((1-methyl-1H-pyrazol-3-yl)methyl)amino)-4-(o-tolyl)-2H-chromen-2-one] | 100
COC[C@@H](C(=O)N1CCC[C@H](C(=O)O)C1)N(C)c1ccc2c(-c3ccccc3C)cc(=O)oc2c1 (single isomer, unassigned) [Example 121] | 300
Cc1ccccc1-c1cc(=O)oc2cc(NCc3ccon3)ccc12 [Example 185, 7-((isoxazol-3-ylmethyl)amino)-4-(o-tolyl)-2H-chromen-2-one] | 700
Cc1ccccc1-c1cc(=O)oc2cc(NCc3ccccc3)ccc12 [Example 107, 7-(benzylamino)-4-(o-tolyl)-2H-chromen-2-one] | 3000
O=c1cc(-c2ccc(F)cc2Cl)c2ccc(CO)cc2o1 [Example 13, 4-(2-chloro-4-fluorophenyl)-7-(hydroxymethyl)-2H-chromen-2-one] | 10000
CN(CCC(=O)O)c1ccc2c(-c3ccccc3Cl)cc(=O)oc2c1 [Example 132, 3-((4-(2-chlorophenyl)-2-oxo-2H-chromen-7-yl)(methyl)amino)propanoic acid] | 1000
COCC(Nc1ccc2c(-c3ccccc3C)cc(=O)oc2c1)C(N)=O (stereo not drawn) [Example 199, 3-methoxy-2-((2-oxo-4-(o-tolyl)-2H-chromen-7-yl)amino)propanamide] | 800
Cc1ccccc1-c1cc(=O)oc2cc(CNC(=O)N3CCC[C@H](C(=O)O)C3)ccc12 [Example 150, (S)-1-(((2-oxo-4-(o-tolyl)-2H-chromen-7-yl)methyl)carbamoyl)piperidine-3-carboxylic acid] | 2000
C[C@@H](Cc1ccc2c(-c3ccc(F)cc3Cl)cc(=O)oc2c1)C(=O)N(C)C [Example 20, (S)-3-(4-(2-chloro-4-fluorophenyl)-2-oxo-2H-chromen-7-yl)-N,N,2-trimethylpropanamide] | 800
CNC(=O)C(C)Cc1ccc2c(-c3ccccc3C)cc(=O)oc2c1 (single isomer, unassigned) [Example 67, N,2-dimethyl-3-(2-oxo-4-(o-tolyl)-2H-chromen-7-yl)propanamide] | 6000
COC(=O)CN(C)c1ccc2c(-c3ccccc3C)cc(=O)oc2c1 [Example 143, methyl N-methyl-N-(2-oxo-4-(o-tolyl)-2H-chromen-7-yl)glycinate] | 30
CN(CCC(N)=O)c1ccc2c(-c3ccc(F)cc3Cl)cc(=O)oc2c1 [Example 137, 3-((4-(2-chloro-4-fluorophenyl)-2-oxo-2H-chromen-7-yl)(methyl)amino)propanamide] | 900
COC(=O)CC(C)c1ccc2c(-c3ccccc3C)cc(=O)oc2c1 (stereo not drawn) [Example 58, methyl 3-(2-oxo-4-(o-tolyl)-2H-chromen-7-yl)butanoate] | 3000
Cc1ccccc1-c1cc(=O)oc2cc(CC(C)C(=O)N3CCC(C(=O)O)CC3)ccc12 (single isomer, unassigned) [Example 95, 1-(2-methyl-3-(2-oxo-4-(o-tolyl)-2H-chromen-7-yl)propanoyl)piperidine-4-carboxylic acid] | 4000
Cc1ccccc1-c1cc(=O)oc2cc(NC(C)(C)C(N)=O)ccc12 [Example 210, 2-methyl-2-((2-oxo-4-(o-tolyl)-2H-chromen-7-yl)amino)propanamide] | 3000
